Measured values as given in paper PMC11484861 (Nature Communications, 2024).
Ends that are not written are not given here.

Tests used:
TOMM22 level = assay type: cell-based, human; details: for effects of SQSTM1 on TOMM22 degradation: PDPK1-KO HEK293T, even in the presence of PDPK1, Mdivi-1 2.5 μM, CQ 50 μM, wortmannin 5 μM, 4 h (Fig 2G)
[1] = system: SARS-CoV-2 M protein level; assay type: cell-based, human
binding of SQSTM1 to M = assay type: cell-based, human
MAVS level = assay type: cell-based, human
IFNB1 mRNA expression [2] = assay type: cell-based, human
IFNB1 mRNA expression [3] = assay type: cell-based, human; remark: listed apart in the source
PEDV [4] = assay type: cell-based
IFNB1 mRNA expression [5] = system: IFNB1 mRNA expression; parameters: species or system mice; details: mouse, in vivo
[6] = system: phosphorylation of SQSTM1 at T138; assay type: cell-based, human
[7] = system: binding of SQSTM1 to TOMM22; assay type: cell-based, human
PEDV [8] = assay type: cell-based; remark: listed apart in the source
mitophagy = assay type: cell-based, human
GFP-SQSTM1 = GFP-SQSTM1 (Homo sapiens, UniProt Q13501); assay: biochemical; assay type: binding
IFNB1 mRNA expression [9] = assay type: cell-based, human; details: HEK293T, presence vs absence of poly (I:C); P = 0.001 (Fig 6A)
[10] = target: GFP-PDPK1 (human (cloned from HEK293T cells)) (UniProt O15530); assay: MST
GFP-PDPK1 (human (cloned from HEK293T cells)), sequence (O15530 whole entry): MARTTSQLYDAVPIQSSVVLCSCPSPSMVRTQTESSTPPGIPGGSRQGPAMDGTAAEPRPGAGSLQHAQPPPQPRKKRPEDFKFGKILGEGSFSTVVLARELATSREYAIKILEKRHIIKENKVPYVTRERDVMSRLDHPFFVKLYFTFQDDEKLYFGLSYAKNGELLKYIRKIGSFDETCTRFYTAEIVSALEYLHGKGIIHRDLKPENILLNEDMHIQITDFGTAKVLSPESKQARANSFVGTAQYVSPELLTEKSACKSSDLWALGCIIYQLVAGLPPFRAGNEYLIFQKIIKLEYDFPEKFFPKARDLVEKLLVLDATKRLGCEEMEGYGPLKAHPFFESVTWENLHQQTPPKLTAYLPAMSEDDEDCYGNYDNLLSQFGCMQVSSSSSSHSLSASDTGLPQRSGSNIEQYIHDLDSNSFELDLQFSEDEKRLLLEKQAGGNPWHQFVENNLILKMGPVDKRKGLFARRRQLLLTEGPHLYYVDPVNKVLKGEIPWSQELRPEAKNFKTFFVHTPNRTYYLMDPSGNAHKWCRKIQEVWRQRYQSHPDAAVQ

CCN(CC)CCCC(C)Nc1ccnc2cc(Cl)ccc12 (stereo not drawn) [CQ, chloroquine]
effects of SQSTM1 on TOMM22 degradation (TOMM22 level): completely abolished | effects of SQSTM1 on M degradation [1]: completely abolished

NCC(=O)Nc1ccc(-n2nc(C(F)(F)F)cc2-c2ccc3c(ccc4ccccc43)c2)cc1 [OSU-03012]
levels of TOMM22 decreased by PM or M expression (TOMM22 level; Fig 5B): restored | TOMM22 levels (TOMM22 level; SQSTM1-KO cells with SQSTM1 expression, compared with control group (Fig S2J)): restored | binding of SQSTM1 to M (binding of SQSTM1 to M): increased | levels of MAVS decreased by PM or M expression (MAVS level): restored | IFNB1 expression during VSV-M infection in cells (IFNB1 mRNA expression [2]): restored | IFNB1 expression during PEDV infection in cells (IFNB1 mRNA expression [3]): restored | PEDV replication / viral titer (TCID50) in cells (PEDV [4]): attenuated | IFNB1 expression in lungs of VSV-M-infected mice (IFNB1 mRNA expression [5]): restored | M/PM-induced phosphorylation of SQSTM1 at T138 [6]: inhibited | phosphorylation of SQSTM1 at T138 [6]: blocked | binding of SQSTM1 to TOMM22 [7]: decreased | PEDV M protein expression during PEDV infection (PEDV [8]): reduced | M levels [1]: further decreased | decrease in GFP fluorescence of RFP-GFP-Mito caused by SQSTM1 expression (mitophagy): reversed the decrease | effect of M on the shift in the green signal to a red signal (RFP-GFP-Mito, mitophagy) (mitophagy): reversed

COC[C@H]1OC(=O)c2coc3c2[C@@]1(C)C1=C(C3=O)[C@@H]2CCC(=O)[C@@]2(C)C[C@H]1OC(C)=O [wortmannin]
effects of SQSTM1 on TOMM22 degradation (TOMM22 level): completely abolished | effects of SQSTM1 on M degradation [1]: completely abolished

Mdivi-1
effects of SQSTM1 on TOMM22 degradation (TOMM22 level): only blocked | effects of SQSTM1 on M degradation [1]: not M degradation

SMWSFNPETN [M-CD]
Kd (GFP-SQSTM1): 0.115 ± 0.028 µM

poly (I:C)
IFNB1 mRNA expression (IFNB1 mRNA expression [9]): substantially increased

unlabeled M-β3-5 (MST ligand) (from UniProt P0DTC5 1-222) (domain or fragment)
Kd [10]: 0.071 µM
